# System: HEK293T cells expressing CD63-nanoLuc
# Experiment: EV secretion level after GSK-A1 (nanoLuc luminescence assay / nanoparticle tracking analysis)
# Type: cell-based
# Conditions: addition of GSK-A1; control without GSK-A1 set as 1; nluc activity in culture supernatant or NTA
# Procedure: A PI4KA inhibitor, GSK-A1, was administered to HEK293T cells expressing CD63-nanoLuc (pDB30), and the amount of secreted extracellular vesicles was measured by luminescence assay (Promega Corporation, Nanoglo luciferase assay system) that measures the nluc activity in a culture supernatant or by nanoparticle tracking analysis (NTA) using Nanosight (Malvern Panalytical Ltd.). As a control, the same experiment was performed without administering GSK-A1, and the EV secretion level at each GSK-A1 concentration was calculated by setting the EV secretion level of the control as 1.
smiles,measurement,value
"COc1ncc(-c2ccc3nc(N)n(-c4ccc(N5CCOCC5)cc4)c3c2)cc1S(=O)(=O)Nc1ccccc1F [GSK-A1, 5-(2-amino-1-(4-morpholinophenyl)-1H-benzo[d]imidazol-6-yl)-N-(2-fluorophenyl)-2-methoxypyridine-3-sulfonamide]",secretion level of a CD63 positive extracellular vesicle,increased

# From US20220411785A1, “LIBRARY OF BARCODED EXTRACELLULAR VESICLES” (The University of Tokyo, priority 2019, published 2022)
